The results in this text go back to ChEMBL document CHEMBL1129113, “Adipoyl-6-aminopenicillanic acid is a substrate for deacetoxycephalosporin C synthase (DAOCS)” (Bioorg Med Chem Lett, 1996).

The term Km denotes the substrate concentration at which the rate is half of its maximum.

Experiment [1] relates to Escherichia coli. Kind of experiment: Enzyme catalytic constant (Kcat) against Deacetoxycephalosporin C synthase.
For experiment [2], the system named is Escherichia coli. Kind of experiment: Enzyme kinetic constant (Km) against Deacetoxycephalosporin C synthase.

Structures are written as SMILES.

As for `CC1(C)S[C@@H]2[C@H](NC(=O)CCCCC(=O)O)C(=O)N2[C@H]1C(=O)O`, the k cat in the experiment with Escherichia coli [1] was found to be 0.071 s⁻¹. Further, the Michaelis constant (Km) in the experiment with Escherichia coli [2] was 1.22 mM.

For `CC1(C)S[C@@H]2[C@H](NC(=O)CCC[C@@H](N)C(=O)O)C(=O)N2[C@H]1C(=O)O`, the k cat in the experiment on Escherichia coli [1] was found to be 0.442 s⁻¹. In addition, the Michaelis-Menten constant (Km) in the experiment on Escherichia coli [2] is 10.3 mM.
